Data published in ChEMBL document CHEMBL1152149 (Bioorg Med Chem Lett, 2008).
Where a name gives a salt, the structure may show the parent alone. Activity calls are given as the source filed them. No cut-off for these calls is given here.

Columns and labels:
Influenza B virus = assay type: functional, organism-based; conditions: B/Hong Kong/05/1972, MDCK
[1] = Cytotoxicity against MDCK cells assessed as detectable alteration of normal cell morphology; assay type: cell-based, Canis lupus familiaris; conditions: dog, read-out: Activity
[2] = Binding affinity to influenza A virus A/chicken/Germany/27 H7N7 weybridge strain M2 ion channel expressed in Escherichia coli
H2N2 subtype = assay type: functional, organism-based, Influenza A virus (A/Japan/305/1957(H2N2)); conditions: Influenza A virus, MDCK
Glutamate NMDA receptor [3] = test: Inhibition of NMDA receptor in rat cerebellar granule neurons assessed as glutamate-induced intracellular calcium increase; assay type: cell-based
Glutamate NMDA receptor [4] = test: Inhibition of NMDA receptor in rat cerebellar granule neurons assessed as NMDA-induced intracellular calcium increase; assay type: cell-based

For `CCC1(N)C2CC3CC(C2)CC1C3` (centres undefined), the Activity (Influenza B virus) was “inactive”, the MCC [1] was greater than 1.16 mM and the Kd [2] was 6.7 µM. For the same compound, the EC50 (H2N2 subtype) was less than 1.9 µM.
In the case of `CC1(O)C2CC3CC(C2)CC1C3` (centres undefined), the Activity (Influenza B virus) is reported as “inactive”, the MCC [1] is reported as greater than 1.51 mM and the IC50 (Glutamate NMDA receptor [3]) is reported as greater than 350 µM. It also gave an EC50 (H2N2 subtype) of 3 µM and an IC50 (Glutamate NMDA receptor [4]) greater than 350 µM.
Compound `C1CCC2(NC1)C1CC3CC(C1)CC2C3` (centres undefined) has an EC50 (Influenza B virus) of 241 µM, an MCC [1] greater than 1.03 mM and a Kd [2] of 0.39 µM. The IC50 (Glutamate NMDA receptor [3]) was 239 µM, the EC50 (H2N2 subtype) was 1 µM and the IC50 (Glutamate NMDA receptor [4]) was 19 µM.
With `CCCC1(O)C2CC3CC(C2)CC1C3` (centres undefined) the Activity (Influenza B virus) was “inactive”, the MCC [1] was greater than 1.29 mM and the IC50 (Glutamate NMDA receptor [3]) was greater than 350 µM. For the same compound, the EC50 (H2N2 subtype) was less than 2.1 µM and the IC50 (Glutamate NMDA receptor [4]) was greater than 350 µM.
For `CC1(N)C2CC3CC(C2)CC1C3` (centres undefined), the Activity (Influenza B virus) was “inactive”, the MCC [1] was greater than 1.24 mM and the Kd [2] was 3.6 µM. For the same compound, the IC50 (Glutamate NMDA receptor [3]) was 306 µM, the EC50 (H2N2 subtype) was 3.5 µM and the IC50 (Glutamate NMDA receptor [4]) was 64.4 µM.
For `C1CNC2(C1)C1CC3CC(C1)CC2C3` (centres undefined), the Activity (Influenza B virus) was “inactive”, the MCC [1] was greater than 1.1 mM and the Kd [2] was 1.16 µM. For the same compound, the IC50 (Glutamate NMDA receptor [3]) was 314 µM, the EC50 (H2N2 subtype) was 1.8 µM and the IC50 (Glutamate NMDA receptor [4]) was 50.6 µM.
For `NC12CC3CC(CC(C3)C1)C2` [AMANTADINE HYDROCHLORIDE], the Activity (Influenza B virus) was “inactive”, the MCC [1] was greater than 1.33 mM and the Kd [2] was 0.32 µM. It also gave an EC50 (H2N2 subtype) of 1.1 µM.
Work on `CC1(F)C2CC3CC(C2)CC1C3` (centres undefined) yielded a Kd [2] greater than 26 µM.
With `NC1C2CC3CC(C2)CC1C3` (centres undefined) the Activity (Influenza B virus) was “inactive”, the MCC [1] was greater than 1.33 mM and the Kd [2] was 2.36 µM. It also gave an IC50 (Glutamate NMDA receptor [3]) greater than 350 µM, an EC50 (H2N2 subtype) of 2.8 µM and an IC50 (Glutamate NMDA receptor [4]) of 219 µM.
In the case of `CCCC1(N)C2CC3CC(C2)CC1C3` (centres undefined), the Activity (Influenza B virus) is reported as “inactive”, the MCC [1] is reported as greater than 1.09 mM and the Kd [2] is reported as 8.71 µM. The IC50 (Glutamate NMDA receptor [3]) was 258 µM, the EC50 (H2N2 subtype) was less than 1.7 µM and the IC50 (Glutamate NMDA receptor [4]) was 61.3 µM.
